Experimental data: PMC11521309, “A novel 4-aminoquinoline chemotype with multistage antimalarial activity and lack of cross-resistance with PfCRT and PfMDR1 mutants” (PLOS Pathogens, 2024)
Values joined by “and” are separate entries in the source; they are usually repeats but may differ in a detail not shown here. Equal entries are not always repeated.

Columns and labels:
[1] = test system: P. falciparum Dd2-Polδ parent culture; test: ABS susceptibility after resistance selection, parental line; assay type: cell-based, Plasmodium falciparum; settings: for % Parasite survival: Dd2 Pol D parent, rep 1-5
Protocol: (§1) P. falciparum ABS parasites were cultured at 3% hematocrit in human O^+ RBCs in RPMI-1640 media supplemented with 25 mM HEPES, 50 mg/L hypoxanthine, 2 mM L-glutamine, 0.21% sodium bicarbonate, 0.5% (w/v) AlbuMAXII (Invitrogen) and 10 μg/mL gentamycin. Culture flasks were kept in modular incubator chambers (Billups-Rothenberg) in a 5% O2, 5% CO2, and 90% N2 atmosphere at 37°C. Synchronized ring-stage parasites were obtained by two consecutive rounds of treatment with 5% D-sorbitol in 48-hour intervals. […] This was done by exposing cultures at 1% hematocrit and 0.3% parasitemia in 96-well plates in the presence of drugs in a two-fold 10 or 12-point serial dilution in duplicate along with drug-free controls. After a 72-hour incubation, parasite survival was assessed by flow cytometry on an iQue flow cytometer (Sartorius) using SYBR Green and MitoTracker Deep Red FM (Life Technologies) as nuclear stain and vital dye, respectively. Parasite survival was determined as a percentage relative to drug-free control. IC50 values were interpolated from log concentration versus response curves in Prism 9 (GraphPad Prism Software Inc.).
(§2) Resistance to LDT-623 was assessed using single-step in vitro resistance selection protocols. […] Dd2-Pol δ is a hypermutable line with two point mutations in DNA polymerase δ that compromise its proofreading activity Cultures were monitored daily by thin blood smears until live parasites were no longer detectable. Drug-containing media was changed daily until parasites cleared, and every other day thereafter. Cultures were passaged once weekly by reducing the volume by 25% and replacing 1/3 of RBCs. Recrudescence monitoring was carried out twice a week by thin blood smears for 60 days. In the event of recrudescence, parasite susceptibility to LDT-623 was tested as described above.

[2] = test system: P. falciparum NF54-Pfs16-GFP-Luc stage IV-V gametocytes; test: Mature gametocyte (stages IV-V) viability, luciferase, 48 h; assay type: cell-based, Plasmodium falciparum; settings: 5 μM
Protocol: P. falciparum NF54-Pfs16-GFP-Luc (MRA-1217), a highly gametocyte-producing strain, was cultured following standard procedures. NF54-Luc ABS parasites were sorbitol-synchronized as previously described and cultured to reach 8–10% parasitemia as mature trophozoites prior to starting gametogenesis induction via nutrient deficit stress. Briefly, stress was induced by replacing only 40% of the culture medium and returning cultures to a 37°C incubation. Cultures were treated with 50 mM N-acetylglucosamine for 10 days to remove ABS parasites. Mature gametocytes (stages IV-V) were isolated using magnetic columns and incubated at 2% gametocytemia and 1.5% hematocrit in 96-well plates containing the test compounds for 48 hours at 37°C, following standard P. falciparum culturing conditions. Methylene blue was used as a gametocytocidal control alongside drug-free wells. Luciferase activity was assessed by adding 40 μL of luciferin substrate (Promega) to 40 μL of parasite lysates and detecting bioluminescence at an integration constant of 10s with the BioTek Cytation 5 Cell Imaging Multimode Reader.

[3] = MTT cytotoxicity assay, 72 h; assay type: cell-based, monkey; settings: monkey, COS-7 cells; MTT, 72 h, N = 3
Protocol: (§3) Human hepatoma (HepG2) and fibroblast-like monkey kidney cells (COS-7) were cultured in Dulbecco’s Modified Eagle Medium supplemented with 10% heat-inactivated fetal bovine serum and gentamycin (40 mg/L) at 37°C in a 5% CO2 atmosphere. Cytotoxicity of test compounds was measured by metabolic reduction of mitochondrial enzymes using the MTT assay (3-[4,5-dimethyl-thiazol-2-yl]-2,5-diphenyltetrazolium chloride). Cells were seeded at 10^5 cells/well in 96-well plates and incubated for 72 hours in the presence of a 2-fold 12-point serial dilution of drugs along with drug-free controls. After adding 15 μL of MTT (5 mg/mL) to the wells, plates were centrifuged at 317g for 5 minutes and the pellet was resuspended in isopropanol. Absorbance was measured at 570 nm (CLARIOStar, Labtech BMG). Cell viability was determined by formazan production, and was expressed as a percentage of untreated control wells.

COS-7 cells = test: MTT cytotoxicity assay, 72 h; assay type: cell-based, monkey
Protocol: as §3

[4] = test system: P. falciparum Dd2-Polδ Flask 2; test: ABS susceptibility after resistance selection, recrudescent line; assay type: cell-based, Plasmodium falciparum; settings: for % Parasite survival: Dd2 Pol D Flask 2, rep 1-5
Protocol: as §1, §2

[5] = test system: P. falciparum Dd2-Polδ Flask 1; test: as above; assay type: cell-based, Plasmodium falciparum; settings: for % Parasite survival: Dd2 Pol D Flask 1, rep 1-5
Protocol: as §1, §2

[6] = test system: P. falciparum Dd2-Pol δ parasites; test: Single-step in vitro resistance selection; assay type: cell-based, Plasmodium falciparum
Protocol: as §2

P. falciparum Dd2^H97Y = test system: P. falciparum Dd2^H97Y; parameters: key: S: sensitive; R: resistant; settings: ref [19],[20],[51]; cited from earlier work
P. falciparum NF10^YF = test system: P. falciparum NF10^YF; parameters: method as in ref 1 Veiga et al. 2016; settings: means ± SEM, N 6; ref 1 Veiga et al. 2016; read-out: IC50 NF10YF; cited from earlier work
P. falciparum 7G8^C350R = test system: P. falciparum 7G8^C350R; parameters: key to Phenotype, 7G8^C350R: S: sensitive; R: resistant; settings: cited from earlier work
P. falciparum Dd2^3D7 = test system: P. falciparum Dd2^3D7; parameters: key: S: sensitive; R: resistant; settings: ref [19],[20],[51]; cited from earlier work
P. falciparum Dd2^G353V = test system: P. falciparum Dd2^G353V; parameters: key to Phenotype, Dd2^G353V: S: sensitive; R: resistant; settings: cited from earlier work

**Q.** For COc1cc2nccc(Nc3cccc(Oc4ccccc4)c3)c2cc1OC [LDT-623], which “mean AUC of survival curve” value ([1]; Dd2-Polδ parent culture) is on record?
**A.** The value was 35.4.

**Q.** What about the “% Parasite survival” value ([1]; 0.09 uM) of the same molecule?
**A.** Its value is 76.35% and 85.80% and 91.78% and 97.25%.

**Q.** And the “% Parasite survival” value ([1]; 0.19 uM)?
**A.** Its value is 89.20% and 72.57% and 70.57% and 79.41% and 83.99%.

**Q.** What about the “% Parasite survival” value ([1]; 25 uM) of the same molecule?
**A.** The value was 0.00% and 0.89%.

**Q.** What about the “% Parasite survival” value ([1]; 50 uM) of the same molecule?
**A.** The value was 0.00% and 1.83%.

**Q.** What about the “% Inhibition of viability, mature gametocytes” value ([2]; mean, N = 3) of the same molecule?
**A.** The value was 62% and 61.67%.

**Q.** And the “% Inhibition of viability, mature gametocytes” value ([2]; single replicates)?
**A.** The value was 78.00% and 67.00% and 40.00%.

**Q.** And the CC50 at 72 h [3]?
**A.** The CC50 at 72 h was 500 ± 100 nM.

**Q.** And the “SI (CC50 COS-7 / IC50 3D7)” value (COS-7 cells)?
**A.** The value was 3.8.

**Q.** And the “% Parasite survival” value ([4]; 0.09 uM)?
**A.** Its value is 88.00% and 80.84% and 100.00% and 86.03%.

**Q.** What about the “% Parasite survival” value ([4]; 0.19 uM) of the same molecule?
**A.** The value was 82.04% and 70.05% and 89.31% and 86.03% and 100.00%.

**Q.** What about the “% Parasite survival” value ([4]; 0.78 uM) of the same molecule?
**A.** The value was 0.00% and 7.11% and 0.21%.

**Q.** What about the “% Parasite survival” value ([4]; 1.56 uM) of the same molecule?
**A.** Its value is 1.80% and 2.03% and 1.07% and 0.00%.

**Q.** And the “% Parasite survival” value ([4]; 3.12 uM)?
**A.** Its value is 7.60% and 5.20% and 3.53% and 0.39% and 7.52%.

**Q.** And the “% Parasite survival” value ([4]; 25 uM)?
**A.** Its value is 0.00% and 7.74% and 3.09%.

**Q.** What about the “% Parasite survival” value ([4]; 50 uM) of the same molecule?
**A.** Its value is 0.00% and 5.80%.

**Q.** And the “mean AUC of survival curve” value ([4]; recrudescent parasites, Flask 2)?
**A.** The value was 22.3.

**Q.** And the “% Parasite survival” value ([5]; 0.09 uM)?
**A.** The value was 100.00% and 83.53% and 90.04% and 99.83%.

**Q.** And the “% Parasite survival” value ([5]; 0.19 uM)?
**A.** The value was 92.44% and 73.57% and 80.08% and 80.97% and 100.00%.

**Q.** What about the “% Parasite survival” value ([5]; 0.78 uM) of the same molecule?
**A.** Its value is 0.00%.

**Q.** And the “% Parasite survival” value ([5]; 1.56 uM)?
**A.** The value was 0.00% and 1.04%.

**Q.** What about the “% Parasite survival” value ([5]; 50 uM) of the same molecule?
**A.** The value was 0.00% and 0.35%.

**Q.** And the “mean AUC of survival curve” value ([5]; recrudescent parasites, Flask 1)?
**A.** The value was 53.8.

**Q.** What about the “recrudescence under constant drug pressure” value ([6]; 3 × IC50 (1 μM), 1 × 10^9 parasites, 60 days) of the same molecule?
**A.** Its value is “No parasite recrudescence”.

**Q.** What about the “log minimum inoculum of resistance (MIR)” value ([6]; constant drug pressure) of the same molecule?
**A.** The value was “higher than 9”.

**Q.** What about the day of recrudescence ([6]; drug pressure removed after day 7, both flasks) of the same molecule?
**A.** The day of recrudescence was 21 days.

**Q.** And the “IC50 of recrudescent bulk parasites vs Dd2-Polδ parent” value ([6]; either flask)?
**A.** Its value is “no difference in IC50”.

**Q.** Which results are given for CCN(CC)CCCC(C)Nc1ccnc2cc(Cl)ccc12 (stereo not shown) [CQ, chloroquine]?
**A.** Phenotype, Dd2^H97Y (P. falciparum Dd2^H97Y): R; IC50 (P. falciparum NF10^YF): 347 ± 24.4 nM; IC50 (P. falciparum 7G8^C350R; 7G8C350R, mean ± SEM, ref 3 (Kim et al., 2019)): 6.9 ± 0.3 nM; Phenotype, 7G8^C350R (P. falciparum 7G8^C350R; ref [19],[20],[51]): S; Phenotype, Dd2^3D7 (P. falciparum Dd2^3D7): S; IC50 (P. falciparum Dd2^G353V; Dd2G353V, mean ± SEM, ref 1 (Ross et al., 2018)): 54.6 ± 4.9 nM; Phenotype, Dd2^G353V (P. falciparum Dd2^G353V; ref [19],[20],[51]): S
